Test results as given in patent US20250108110A1, “COMBINATION THERAPY FOR USE IN TREATMENT OF NON-SMALL CELL LUNG CANCER” (Alethia Biotherapeutics Inc., priority 2022, published 2025).

Legend:
[1] = test system: advanced non-small cell lung cancer; conditions: second-line chemotherapy; cited from earlier work
[2] = Pharmacokinetics of AB-16B5 in treated subjects; assay type: in vivo, human; conditions: preliminary pharmacokinetics data (not shown), 12 mg/kg once weekly
Excerpt: Yet another secondary objective of this study is to determine the pharmacokinetics of AB-16B5 in this subject population.

Row | Molecule | efficacy of 50 mg/m^2 once every two weeks versus 75 mg/m^2 once every three weeks [1] | accumulation of the antibody in the treated subjects over time [2]
1 | CC(=O)O[C@@]12CO[C@@H]1C[C@H](O)[C@@]1(C)C(=O)[C@H](O)C3=C(C)[C@@H](OC(=O)[C@H](O)[C@@H](NC(=O)OC(C)(C)C)c4ccccc4)C[C@@](O)([C@@H](OC(=O)c4ccccc4)[C@H]21)C3(C)C [docetaxel] | as effective as | –
2 | AB-16B5: humanized IgG2 monoclonal antibody targeting sCLU for the inhibition of cancer-associated EMT; light chain SEQ ID NO:14, heavy chain SEQ ID NO:15 | – | accumulation
